Key:
[1] = target: T1, androgen receptor (AR-LBD) (Rattus norvegicus, UniProt P15207); experiment: Evaluation of androgen receptor affinity (PolarScreen Androgen Receptor Competitor Assay Kit, Red; fluorescence polarization); settings: 22° C. for 5 hours, relative to binding rate of 1 μM DHT, read-out: AR affinity (pEC50) (converted)
T1 construct: 5 μL of 2×AR-LBD/Fluoromone AL Red Complex contained in the kit; purchased Invitrogen
T1 sequence (P15207 651-882 limits assumed): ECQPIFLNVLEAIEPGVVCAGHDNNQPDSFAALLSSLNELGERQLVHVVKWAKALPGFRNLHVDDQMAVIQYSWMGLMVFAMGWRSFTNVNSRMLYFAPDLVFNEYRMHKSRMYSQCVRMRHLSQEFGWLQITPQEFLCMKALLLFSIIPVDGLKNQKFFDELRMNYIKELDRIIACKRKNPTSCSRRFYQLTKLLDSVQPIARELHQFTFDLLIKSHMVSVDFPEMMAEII
Outline: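 Duplicate wells; compound plus AR-LBD tracer complex incubated 22° C for 5 h, then FP measured. Effect compared with 1 μM DHT; 50%-effect concentration expressed as pEC50.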

[2] = target: T2, human androgen receptor (Homo sapiens, UniProt P10275); experiment: Reporter assay of an androgen receptor responsive sequence (luciferase, transiently transfected HEK293 cells); type: cell-based; settings: 24 hours incubation, relative to activity of 100 nM DHT, read-out: AR transcriptive activity (pEC50) (converted)
T2 construct: expressed in transfected cells; host or cells: HEK293
T2 sequence (P10275 1-920): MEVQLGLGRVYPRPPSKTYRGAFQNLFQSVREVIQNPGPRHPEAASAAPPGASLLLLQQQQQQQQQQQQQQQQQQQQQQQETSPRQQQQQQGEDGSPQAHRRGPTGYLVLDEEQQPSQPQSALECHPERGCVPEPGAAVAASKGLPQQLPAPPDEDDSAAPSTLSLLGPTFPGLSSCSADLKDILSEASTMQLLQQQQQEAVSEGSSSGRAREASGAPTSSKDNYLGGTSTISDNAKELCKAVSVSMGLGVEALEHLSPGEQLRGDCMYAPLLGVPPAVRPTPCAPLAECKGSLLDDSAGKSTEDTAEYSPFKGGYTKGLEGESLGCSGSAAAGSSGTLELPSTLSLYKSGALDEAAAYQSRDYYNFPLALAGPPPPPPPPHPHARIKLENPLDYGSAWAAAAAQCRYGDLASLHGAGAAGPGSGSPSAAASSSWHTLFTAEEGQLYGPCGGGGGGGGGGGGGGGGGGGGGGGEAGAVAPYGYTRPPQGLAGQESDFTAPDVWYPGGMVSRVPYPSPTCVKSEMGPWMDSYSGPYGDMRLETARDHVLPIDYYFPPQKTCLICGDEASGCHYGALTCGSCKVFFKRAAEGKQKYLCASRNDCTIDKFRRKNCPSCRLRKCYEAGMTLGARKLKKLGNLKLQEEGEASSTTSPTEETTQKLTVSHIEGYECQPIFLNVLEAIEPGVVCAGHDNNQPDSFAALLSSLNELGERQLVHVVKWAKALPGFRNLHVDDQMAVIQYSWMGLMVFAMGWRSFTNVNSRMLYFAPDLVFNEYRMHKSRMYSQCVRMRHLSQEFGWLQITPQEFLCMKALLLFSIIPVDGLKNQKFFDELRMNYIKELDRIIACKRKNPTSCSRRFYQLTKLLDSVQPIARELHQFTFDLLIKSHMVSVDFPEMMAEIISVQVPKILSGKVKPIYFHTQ
Outline: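 Agonism scored as pEC50, fitted by 4-parameter curve against the response to 100 nM DHT, from dual-luciferase readout after 24 h compound treatment. Cells were HEK293 co-transfected (3 h) with human AR expression vector, androgen-responsive firefly reporter and Renilla control, in charcoal-stripped serum.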

EC50 [1] [nM]	EC50 [2] [nM]	Compound
251	1260	Cc1sc(N(CC2CCC(F)(F)CC2)c2ccc(C#N)cc2)nc1C(=O)NS(C)(=O)=O [Compound 39, 2-[4-cyano-N-[(4,4-difluorocyclohexyl)methyl]anilino]-5-methyl-N-methylsulfonyl-thiazole-4-carboxamide]
63.1	631	Cc1sc(N(Cc2c(F)cccc2F)c2ccc(C#N)cc2)nc1C(=O)NS(C)(=O)=O [Compound 124, 2-[4-cyano-N-[(2,6-difluorophenyl)methyl]anilino]-5-methyl-N-methylsulfonyl-thiazole-4-carboxamide]
63.1	251	Cc1oc(N(CCc2ccc(Cl)cc2)Cc2ccc(F)cc2)nc1C(=O)NS(C)(=O)=O [Compound 550, 2-[2-(4-chlorophenyl)ethyl-[(4-fluorophenyl)methyl]amino]-5-methyl-N-methylsulfonyl-oxazole-4-carboxamide]
631	1580	Cc1sc(N(Cc2nc(C3CC3)no2)c2ccc(C#N)cc2)nc1C(=O)NS(C)(=O)=O [Example 196, 2-[4-cyano-N-[(3-cyclopropyl-1,2,4-oxadiazol-5-yl)methyl]anilino]-5-methyl-N-methylsulfonyl-thiazole-4-carboxamide]
63.1	251	CCS(=O)(=O)NC(=O)c1nc(N(Cc2ccccc2)c2ccc(C#N)cc2)sc1C [Compound 362, 2-(N-benzyl-4-cyano-anilino)-N-ethylsulfonyl-5-methyl-thiazole-4-carboxamide]

Reference: patent publication US10689354B2, “Aminoazole derivative” (Teijin Pharma Limited, priority 2015, dated 2020)
